Assays:
[1] = test system: BLM-induced pulmonary fibrosis; test: BLM-induced pulmonary fibrosis mouse model; assay type: in vivo, C57BL/6J mice; conditions: BLM 2.5 U/kg mice
Description: Four groups were intratracheally administered bleomycin (BLM; 2.5 U/kg) to induce pulmonary fibrosis, while one group served as a normal control. The treatment groups included: BLM-only, BLM+GMI (1 mg/kg), BLM+GMI (2 mg/kg), and BLM+PFD (200 mg/kg). All surviving animals were sacrificed on day 22.

[2] = test system: fibronectin, COL1A1, and α-SMA; test: Western blot of fibrosis markers in TGF-β1-induced fibrotic LL29 cells; assay type: cell-based, human; conditions: LL29 cells stimulated with TGF-β1 5 ng/ml, normalized to α-tubulin
Description: In the in vitro experiments, cells were pre-treated with test compounds and subsequently stimulated with recombinant TGF-β1 to induce fibrotic processes. TGF-β1 plays a critical role in epithelial-mesenchymal transition (EMT), a key driver in the differentiation of fibroblasts into myofibroblasts. LL29 cells, derived from IPF patient lung fibroblasts, were obtained from ATCC®. Upon reaching 70% confluence, cells were pre-treated with selected concentrations of GMI in low-serum media for 2 hours, followed by exposure to 5 ng/ml of recombinant human TGF-β1 (R&D Systems, MN, USA) for 48 hours.
Cell lysates were prepared in RIPA buffer. […] Protein expression was quantified using Fiji software.
The present invention evaluated the expression levels of fibronectin, COL1A1, and alpha-smooth muscle actin (α-SMA), as these proteins are key markers associated with myofibroblasts and extracellular matrix (ECM) remodeling.
FIG. 3 (A) presents the results of Western blot analysis showing the expression of fibronectin, COL1A1, α-SMA, and the internal loading control α-tubulin. FIGS. 3 (B), (C) and (D) show the quantification of protein expression based on band intensity, represented as fold changes in the ratios of fibronectin/α-tubulin, COL1A1/α-tubulin, and α-SMA/α-tubulin, normalized to the untreated control (NT) group. […]

## Cc1ccc(=O)n(-c2ccccc2)c1 [PFD, pirfenidone]
[1]; PFD 200 mg/kg
  survival rate: 50%
[1]; compared to normal group
  lung appearance (gross examination, color): color and appearance comparable to the normal group
[2]
  expression levels of fibronectin, COL1A1 and α-SMA: failed to suppress the TGF-β1-induced upregulation
